In patent US20250019387A1 (Frontier Medicines Corporation, priority 0001, published 2025) one finds IC50 data, which are given here for 27 molecules.

Like-named read-outs stand apart in the source and are kept apart here.

The assay concerns the target KRAS G12C and cRAF (Ras-binding domain) interaction (Homo sapiens (Human), UniProt P01116, C118S/C51S/C80L/G12C). The experiment in a line: Inhibition of KRAS G12C and cRAF binding (AlphaScreen). A digest of the protocol:
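IC50 values come from 4-parameter nonlinear regression of AlphaScreen signal (680 nm excitation, 570 nm emission). Compound plates sat 19-20 h at room temperature before RBD and donor/acceptor beads were added in Hepes pH 7.4 buffer with 150 mM NaCl, 5 mM MgCl2, 2% DMSO for 60-90 min; biotin-AviTag-GST replaced RBD to flag assay-technology interferers.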

Setting [1] is: GMPPNP-loaded KRAS G12C, 19-20 hours incubation with compound, read-out: IC50 (Inhibition of KRAS G12C and cRAF Binding).
Setting [2] is: additional exemplary compounds, KRAS G12C and cRAF binding, read-out: RAF1 RBD IC50.

KRAS G12C and cRAF (Ras-binding domain) interaction, sequence (P01116 other isoform, or with tags, fused parts or gaps G12C/C51S/C80L/C118S): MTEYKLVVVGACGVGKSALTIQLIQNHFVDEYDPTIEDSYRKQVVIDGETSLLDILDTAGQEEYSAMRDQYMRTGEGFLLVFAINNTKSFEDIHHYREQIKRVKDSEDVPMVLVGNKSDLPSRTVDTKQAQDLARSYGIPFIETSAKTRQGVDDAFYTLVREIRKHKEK

In the case of `Cc1ncc(F)c(/C=C/C(=O)N2CC[C@@H](N(C)c3nc(OCC45CCCN4CCC5)nc4c(F)c(-c5cccc6ccc(F)c(Cl)c56)ncc34)C2)n1` [Example 244, (R,E)-1-(3-((7-(8-chloro-7-fluoronaphthalen-1-yl)-8-fluoro-2-((tetrahydro-1H-pyrrolizin-7a(5H)-yl)methoxy)pyrido[4,3-d]pyrimidin-4-yl)(methyl)amino)pyrrolidin-1-yl)-3-(5-fluoro-2-methylpyrimidin-4-yl)prop-2-en-1-one], the IC50 under setting [1] lay in the range of 100 to 500 nM.
For the molecule `C#Cc1c(F)ccc2cccc(-c3ncc4c(N(C)[C@@H]5CCN(C(=O)C=C)C5)nc(OCC56CCCN5CCC6)nc4c3F)c12` [Example 303, (R)-1-(3-((7-(8-ethynyl-7-fluoronaphthalen-1-yl)-8-fluoro-2-((tetrahydro-1H-pyrrolizin-7a(5H)-yl)methoxy)pyrido[4,3-d]pyrimidin-4-yl)(methyl)amino)pyrrolidin-1-yl)prop-2-en-1-one], the IC50 under setting [1] is below 10 nM.
Take `C=CC(=O)CCN(C)c1nc(OCC2CCN2C)nc2c1CCN(c1cccc3cccc(Cl)c13)C2` (stereo not drawn): the concentration for half-maximal inhibition (IC50) under setting [2] was in the range of 10 to 100 nM.
For the molecule `C=CC(=O)N(C)C[C@@H]1CCN1c1nc(OC[C@@]23CCCN2C[C@H](F)C3)nc2c(F)c(-c3cccc4cccc(Cl)c34)ncc12`, under setting [2], the IC50 was above 500 nM.
Consider `Cc1nccc(/C=C/C(=O)N2CCC3(C2)CN(c2nc(OC[C@@]45CCCN4C[C@H](F)C5)nc4c(F)c(-c5cccc6cccc(Cl)c56)ncc24)C3)n1`, for which, under setting [2], the IC50 was above 500 nM.
On the same count and under the same terms, the result for `CN(CCS(=O)(=O)/C=C/CC1CC1)c1nc(OC[C@@H]2CCCN2C)nc2c(F)c(-c3cccc4cccc(Cl)c34)ncc12` reads above 500 nM; that for `C=CC(=O)N1CC[C@@H](N(C)c2nc(OCC34CCCN3CCC4)nc3c2CCN(c2cccc4ccc(F)c(Cl)c24)C3)C1`, 100 to 500 nM.
Take `C=CS(=O)(=O)C1CCCN(c2nc(OCC34CCCN3CCC4)nc3c2CCN(c2cccc4cccc(Cl)c24)C3)C1` (stereo not drawn): under setting [2], the IC50 fell in the range of 10 to 100 nM.
With `CN(c1nc(OCC23CCCN2CCC3)nc2c1CCN(c1cccc3cccc(Cl)c13)C2)[C@@H]1CCN(C(=O)/C=C/C2(C)COC2)C1`, the IC50 under setting [2] was above 500 nM.
As for `CN(CC1CN(C(=O)/C=C/CN2CCOCC2)C1)c1nc(OC[C@@]23CCCN2C[C@H](F)C3)nc2c(F)c(-c3cccc4ccc(F)c(Cl)c34)ncc12` [Example 79, (E)-1-(3-(((7-(8-chloro-7-fluoronaphthalen-1-yl)-8-fluoro-2-(((2R,7aS)-2-fluorotetrahydro-1H-pyrrolizin-7a(5H)-yl)methoxy)pyrido[4,3-d]pyrimidin-4-yl)(methyl)amino)methyl)azetidin-1-yl)-4-morpholinobut-2-en-1-one], the IC50 under setting [1] was in the range of 10 to 100 nM.
With `C=CS(=O)(=O)C1CCC(N(C)c2nc(OCC34CCCN3CCC4)nc3c2CCN(c2cccc4cccc(Cl)c24)C3)C1` (stereo not drawn), the IC50 under setting [2] was 10 to 100 nM.
Consider `CN(c1nc(OC[C@@]23CCCN2C[C@H](F)C3)nc2c(F)c(-c3cccc4ccc(F)c(Cl)c34)ncc12)[C@@H]1CCN(C(=O)/C=C/[C@H]2CCN2CCO)C1` [Example 222, (E)-1-((R)-3-((7-(8-chloro-7-fluoronaphthalen-1-yl)-8-fluoro-2-(((2R,7aS)-2-fluorotetrahydro-1H-pyrrolizin-7a(5H)-yl)methoxy)pyrido[4,3-d]pyrimidin-4-yl)(methyl)amino)pyrrolidin-1-yl)-3-((R)-1-(2-hydroxyethyl)azetidin-2-yl)prop-2-en-1-one], for which, under setting [1], the IC50 was below 10 nM.
`CN1CCC[C@H]1COc1nc(N(C)[C@@H]2CCN(C(=O)/C=C/CN3CC(F)(F)C3)C2)c2cnc(-c3cccc4cccc(Cl)c34)c(F)c2n1`: the IC50 under setting [2] lay within 100 to 500 nM.
Regarding `CCN(CC)C/C=C/S(=O)(=O)CCN(C)c1nc(OCC23CCCN2CCC3)nc2c1CCN(c1cccc3cccc(Cl)c13)C2` [Example 55, (E)-7-(8-chloronaphthalen-1-yl)-N-(2-((3-(diethylamino)prop-1-en-1-yl)sulfonyl)ethyl)-2-((hexahydro-1H-pyrrolizin-7a-yl)methoxy)-N-methyl-5,6,7,8-tetrahydropyrido[3,4-d]pyrimidin-4-amine], under setting [1], the IC50 is below 10 nM.
In the case of `CN(c1nc(OCC23CCCN2CCC3)nc2c(F)c(-c3cccc4cccc(Cl)c34)ncc12)[C@@H]1CCN(C(=O)/C=C/c2ccncn2)C1`, under setting [2], the IC50 was above 500 nM.
Take `N#CN1CCC(N(c2nc(OC[C@@]34CCCN3C[C@H](F)C4)nc3c(F)c(-c4cccc5cccc(Cl)c45)ncc23)C2CC2)C1` (stereo partly drawn): the IC50 under setting [2] was in the range of 10 to 100 nM.
For the molecule `CN1CCCC1C#CC(=O)N1CC[C@@H](N(C)c2nc(OC[C@@]34CCCN3C[C@H](F)C4)nc3c(F)c(-c4cccc5cccc(Cl)c45)ncc23)C1` (stereo partly drawn) [Example 66, 1-((R)-3-((7-(8-chloronaphthalen-1-yl)-8-fluoro-2-(((2R,7aS)-2-fluorotetrahydro-1H-pyrrolizin-7a(5H)-yl)methoxy)pyrido[4,3-d]pyrimidin-4-yl)(methyl)amino)pyrrolidin-1-yl)-3-(1-methylpyrrolidin-2-yl)prop-2-yn-1-one], the IC50 under setting [1] fell in the range of 10 to 100 nM.
As to `C=CC(=O)N1C[C@@H](N(C)c2nc(OCC34CCCN3CCC4)nc3c(F)c(-c4cccc5cccc(Cl)c45)ncc23)C[C@@H]1CC#N`, the IC50 under setting [2] was above 500 nM.
For the molecule `CN1CCC1C#CC(=O)N1CC[C@@H](N(C)c2nc(OC[C@@]34CCCN3C[C@H](F)C4)nc3c(F)c(-c4cccc5cccc(Cl)c45)ncc23)C1` (stereo partly drawn) [Example 186, 1-((R)-3-((7-(8-chloronaphthalen-1-yl)-8-fluoro-2-(((2R,7aS)-2-fluorohexahydro-1H-pyrrolizin-7a-yl)methoxy)pyrido[4,3-d]pyrimidin-4-yl)(methyl)amino)pyrrolidin-1-yl)-3-(1-methylazetidin-2-yl)prop-2-yn-1-one], the IC50 under setting [1] was below 10 nM.
For `CN(CC1CN(C(=O)/C=C/c2nc(C(F)F)no2)C1)c1nc(OCC23CCCN2CCC3)nc2c1CCN(c1cccc3cccc(Cl)c13)C2` [Example 150, (E)-1-(3-(((7-(8-chloronaphthalen-1-yl)-2-((hexahydro-1H-pyrrolizin-7a-yl)methoxy)-5,6,7,8-tetrahydropyrido[3,4-d]pyrimidin-4-yl)(methyl)amino)methyl)azetidin-1-yl)-3-(3-(difluoromethyl)-1,2,4-oxadiazol-5-yl)prop-2-en-1-one], the IC50 under setting [1] was below 10 nM.
`Cc1ncc(F)c(/C=C/C(=O)N2CC[C@@H](N(C)c3nc(OCC45CCCN4CCC5)nc4c(F)c(-c5cccc6cccc(Cl)c56)ncc34)C2)n1` [Example 249, (R,E)-1-(3-((7-(8-chloronaphthalen-1-yl)-8-fluoro-2-((tetrahydro-1H-pyrrolizin-7a(5H)-yl)methoxy)pyrido[4,3-d]pyrimidin-4-yl)(methyl)amino)pyrrolidin-1-yl)-3-(5-fluoro-2-methylpyrimidin-4-yl)prop-2-en-1-one]: the IC50 under setting [1] is 10 to 100 nM.
On to `CN(c1nc(OC[C@@]23CCCN2C[C@H](F)C3)nc2c1CCN(c1cccc3cccc(Cl)c13)C2)[C@@H]1CCN(C(=O)/C=C/c2nc(C3(C)CC3)no2)C1` [Example 114, (E)-1-((R)-3-((7-(8-chloronaphthalen-1-yl)-2-(((2R,7aS)-2-fluorohexahydro-1H-pyrrolizin-7a-yl)methoxy)-5,6,7,8-tetrahydropyrido[3,4-d]pyrimidin-4-yl)(methyl)amino)pyrrolidin-1-yl)-3-(3-(1-methylcyclopropyl)-1,2,4-oxadiazol-5-yl)prop-2-en-1-one], for which the IC50 under setting [1] lay in the range of 10 to 100 nM.
Consider `CN(CCNC(=O)/C=C/C(=O)O)c1nc(OC[C@@H]2CCCN2C)nc2c1CCN(c1cccc3cccc(Cl)c13)C2` [Example 21, (S,E)-4-((2-((7-(8-chloronaphthalen-1-yl)-2-((1-methylpyrrolidin-2-yl)methoxy)-5,6,7,8-tetrahydropyrido[3,4-d]pyrimidin-4-yl)(methyl)amino)ethyl)amino)-4-oxobut-2-enoic acid], for which the IC50 under setting [1] is above 500 nM.
For `CN(CC1CN(C(=O)/C=C/[C@@H]2CCN2C)C1)c1nc(OC[C@@]23CCCN2C[C@H](F)C3)nc2c(F)c(-c3cccc4ccc(F)c(Cl)c34)ncc12` [Example 220, (E)-1-(3-(((7-(8-chloro-7-fluoronaphthalen-1-yl)-8-fluoro-2-(((2R,7aS)-2-fluorotetrahydro-1H-pyrrolizin-7a(5H)-yl)methoxy)pyrido[4,3-d]pyrimidin-4-yl)(methyl)amino)methyl)azetidin-1-yl)-3-((S)-1-methylazetidin-2-yl)prop-2-en-1-one], the IC50 under setting [1] was below 10 nM.
As for `N#CN1CC[C@H]2[C@H]1CCN2c1nc(OC[C@@]23CCCN2C[C@H](F)C3)nc2c(F)c(-c3cccc4cccc(Cl)c34)ncc12`, under setting [2], the IC50 was in the range of 100 to 500 nM.
Turning to `Cc1nsc(/C=C/C(=O)N2C[C@H](F)[C@@H](N(C)c3nc(OC[C@@]45CCCN4C[C@H](F)C5)nc4c(F)c(-c5cccc6cccc(Cl)c56)ncc34)C2)n1` [Example 215, (E)-1-((3S,4S)-3-((7-(8-chloronaphthalen-1-yl)-8-fluoro-2-(((2R,7aS)-2-fluorohexahydro-1H-pyrrolizin-7a-yl)methoxy)pyrido[4,3-d]pyrimidin-4-yl)(methyl)amino)-4-fluoropyrrolidin-1-yl)-3-(3-methyl-1,2,4-thiadiazol-5-yl)prop-2-en-1-one], the IC50 under setting [1] fell in the range of 100 to 500 nM.
Regarding `CN(CC1CN(C(=O)/C=C/c2nc(C3COC3)no2)C1)c1nc(OC[C@@]23CCCN2C[C@H](F)C3)nc2c(F)c(-c3cccc4cccc(Cl)c34)ncc12` [Example 152, (E)-1-(3-(((7-(8-chloronaphthalen-1-yl)-8-fluoro-2-(((2R,7aS)-2-fluorotetrahydro-1H-pyrrolizin-7a(5H)-yl)methoxy)pyrido[4,3-d]pyrimidin-4-yl)(methyl)amino)methyl)azetidin-1-yl)-3-(3-(oxetan-3-yl)-1,2,4-oxadiazol-5-yl)prop-2-en-1-one], the IC50 under setting [1] was below 10 nM.

In general, IC50 refers to the concentration at which inhibition is half-maximal.
